{"source": "ChEMBL document CHEMBL4043238", "about": "“Discovery of N-substituted 7-azaindoles as Pan-PIM kinase inhibitors - Lead series identification - Part II” (Bioorg Med Chem Lett, 2017)", "key": {"KG-1": {"system": "KG-1", "experiment": "Antiproliferative activity against human KG1 cells", "assay_type": "functional, cell-based"}, "[1]": {"molecular_target": "T1, Serine/threonine-protein kinase pim-1 (Homo sapiens, UniProt P11309)", "experiment": "Inhibition of PIM1 (unknown origin) assessed as reduction in BAD phosphorylation at Ser112 residues by TR-FRET assay"}, "[2]": {"molecular_target": "Serine/threonine-protein kinase pim-2 (Homo sapiens, UniProt Q9P1W9)", "experiment": "Inhibition of PIM2 (unknown origin) assessed as reduction in BAD phosphorylation at Ser112 residues by TR-FRET assay"}, "[3]": {"molecular_target": "T1, Serine/threonine-protein kinase pim-1", "experiment": "Inhibition of PIM1 in human KG1 cells assessed as reduction in BAD phosphorylation", "assay_type": "cell-based"}, "[4]": {"experiment": "Permeability from apical to basolateral side in human Caco2/TC7 cells at 5 uM", "assay_type": "ADME, cell-based", "details": "Caco-2, read-out: permeability"}, "[5]": {"molecular_target": "Voltage-gated inwardly rectifying potassium channel KCNH2 (Homo sapiens, UniProt Q12809)", "experiment": "Inhibition of human ERG by patch clamp assay"}, "[6]": {"experiment": "Thermodynamic solubility of the compound at pH 7.4", "assay_type": "physicochemical", "details": "buffer, read-out: Therm_solubility"}, "Liver [7]": {"system": "Liver", "experiment": "Stability in human liver microsomes", "assay_type": "ADME, microsome"}, "Liver [8]": {"system": "Liver", "experiment": "Stability in rat liver microsomes", "assay_type": "ADME, microsome"}, "Liver [9]": {"system": "Liver", "experiment": "Stability in mouse liver microsomes", "assay_type": "ADME, microsome"}, "Cytochrome P450 3A4 [10]": {"molecular_target": "T2, Cytochrome P450 3A4 (Homo sapiens, UniProt P08684)", "experiment": "Inhibition of CYP3A4 (unknown origin) using midazolam as substrate", "assay_type": "ADME"}, "Cytochrome P450 3A4 [11]": {"molecular_target": "T2, Cytochrome P450 3A4", "experiment": "Inhibition of CYP3A4 (unknown origin) using testosterone as substrate", "assay_type": "ADME"}, "[12]": {"experiment": "AUC (0 to infinity) in rat at 3 mg/kg, iv administered as single dose", "assay_type": "ADME, organism-based", "design": "dose 3 mg/kg, route intravenous, time infinity", "details": "in vivo"}, "[13]": {"experiment": "AUC (0 to infinity) in rat at 10 mg/kg, po administered as single dose", "assay_type": "ADME, organism-based", "design": "dose 10 mg/kg, time infinity, route oral", "details": "in vivo"}, "[14]": {"experiment": "Cmax in rat at 10 mg/kg, po administered as single dose", "assay_type": "ADME, organism-based", "design": "dose 10 mg/kg, route oral", "details": "in vivo"}, "[15]": {"experiment": "Half life in rat at 3 mg/kg, iv administered as single dose", "assay_type": "ADME, organism-based", "details": "in vivo"}, "[16]": {"experiment": "Clearance in rat at 3 mg/kg, iv administered as single dose", "assay_type": "ADME, organism-based", "details": "in vivo"}, "[17]": {"experiment": "Volume of distribution at steady state in rat at 3 mg/kg, iv administered as single dose", "assay_type": "ADME, organism-based", "details": "in vivo, read-out: Vdss"}, "Mus musculus [18]": {"system": "Mus musculus", "experiment": "In vivo inhibition of PIM1 in SCID mouse xenografted with human KG1 cells assessed as reduction in BAD phosphorylation at 25 mg/kg, po administered as single dose measured at 8 hrs relative to control", "assay_type": "functional", "details": "KG-1, po"}, "Mus musculus [19]": {"system": "Mus musculus", "experiment": "In vivo inhibition of PIM1 in SCID mouse xenografted with human KG1 cells assessed as reduction in BAD phosphorylation at 25 mg/kg, po administered as single dose measured at 24 hrs relative to control", "assay_type": "functional", "details": "KG-1, po"}, "[20]": {"experiment": "Plasma concentration in SCID mouse xenografted with human KG1 cells at 25 mg/kg, po administered as single dose measured at 8 hrs", "assay_type": "ADME, organism-based"}, "[21]": {"experiment": "Plasma concentration in SCID mouse xenografted with human KG1 cells at 25 mg/kg, po administered as single dose measured at 24 hrs", "assay_type": "ADME, organism-based"}, "[22]": {"experiment": "Drug uptake in tumor of SCID mouse xenografted with human KG1 cells at 25 mg/kg, po administered as single dose measured at 8 hrs", "assay_type": "ADME, organism-based, Neoplasm", "details": "read-out: Drug uptake"}, "[23]": {"experiment": "Drug uptake in tumor of SCID mouse xenografted with human KG1 cells at 25 mg/kg, po administered as single dose measured at 24 hrs", "assay_type": "ADME, organism-based, Neoplasm", "details": "read-out: Drug uptake"}, "[24]": {"experiment": "Protein binding in human plasma", "assay_type": "ADME, cell-free", "details": "read-out: PPB"}, "[25]": {"experiment": "Protein binding in rat plasma", "assay_type": "ADME, cell-free", "details": "read-out: PPB"}, "[26]": {"experiment": "Protein binding in mouse plasma", "assay_type": "ADME, cell-free", "details": "read-out: PPB"}}}
{"smiles": "NC(=O)c1cc(Cl)c2c(Cl)c(C3CC3)n([C@H]3CCCNC3)c2n1", "values": [{"measurement": "IC50", "setting": "KG-1", "result": 62, "unit": "nM"}, {"measurement": "IC50", "setting": "[1]", "result": 1, "unit": "nM"}, {"measurement": "IC50", "setting": "[2]", "result": 6, "unit": "nM"}, {"measurement": "IC50", "setting": "[3]", "result": 43, "unit": "nM"}, {"measurement": "Papp A→B at 5 µM", "setting": "[4]", "result": 3.8, "unit": "×10⁻⁶ cm/s"}, {"measurement": "IC50", "setting": "[5]", "result": 2900, "unit": "nM"}, {"measurement": "solubility thermodynamic", "setting": "[6]", "result": 225, "unit": "µM"}, {"measurement": "Stability", "setting": "Liver [7]", "result": 1, "unit": "%"}, {"measurement": "Stability", "setting": "Liver [8]", "result": 6, "unit": "%"}, {"measurement": "Stability", "setting": "Liver [9]", "result": 10, "unit": "%"}, {"measurement": "IC50", "setting": "Cytochrome P450 3A4 [10]", "result": "> 30000", "unit": "nM"}, {"measurement": "IC50", "setting": "Cytochrome P450 3A4 [11]", "result": 21000, "unit": "nM"}, {"measurement": "AUC(0-inf)", "setting": "[12]", "result": 2620, "unit": "ng·h/mL"}, {"measurement": "AUC(0-inf)", "setting": "[13]", "result": 7450, "unit": "ng·h/mL"}, {"measurement": "Cmax", "setting": "[14]", "result": 390, "unit": "ng/mL"}, {"measurement": "half-life", "setting": "[15]", "result": 13.6, "unit": "h"}, {"measurement": "clearance", "setting": "[16]", "result": 18.3, "unit": "mL/min/kg"}, {"measurement": "Vd", "setting": "[17]", "result": 20.9, "unit": "L/kg"}, {"measurement": "inhibition in vivo at 25 mg/kg", "setting": "Mus musculus [18]", "result": "60 to 65", "unit": "%"}, {"measurement": "inhibition in vivo at 25 mg/kg", "setting": "Mus musculus [19]", "result": 61, "unit": "%"}, {"measurement": "concentration at 8 h", "setting": "[20]", "result": 18.9, "unit": "µM"}, {"measurement": "concentration at 24 h", "setting": "[21]", "result": 8.21, "unit": "µM"}, {"measurement": "concentration at 8 h", "setting": "[22]", "result": 101, "unit": "µM"}, {"measurement": "concentration at 24 h", "setting": "[23]", "result": 99, "unit": "µM"}, {"measurement": "fraction unbound", "setting": "[24]", "result": 0.01}, {"measurement": "fraction unbound", "setting": "[25]", "result": 0.01}, {"measurement": "fraction unbound", "setting": "[26]", "result": 0.01}]}
